Results from US10829501B2 (BRISTOL-MYERS SQUIBB COMPANY, priority 2016, dated 2020).

These molecules were tested against ROCK2 (Homo sapiens, UniProt O75116) (assay: ROCK2 kinase inhibition assay (LABCHIP 3000 Reader, FITC peptide substrate);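 note: rho kinase reaction read by separating phosphorylated from unphosphorylated peptide on chip, with inhibition of kinase activity computed per concentration across a dose-response series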).
ROCK2, sequence (O75116 whole entry, species assumed): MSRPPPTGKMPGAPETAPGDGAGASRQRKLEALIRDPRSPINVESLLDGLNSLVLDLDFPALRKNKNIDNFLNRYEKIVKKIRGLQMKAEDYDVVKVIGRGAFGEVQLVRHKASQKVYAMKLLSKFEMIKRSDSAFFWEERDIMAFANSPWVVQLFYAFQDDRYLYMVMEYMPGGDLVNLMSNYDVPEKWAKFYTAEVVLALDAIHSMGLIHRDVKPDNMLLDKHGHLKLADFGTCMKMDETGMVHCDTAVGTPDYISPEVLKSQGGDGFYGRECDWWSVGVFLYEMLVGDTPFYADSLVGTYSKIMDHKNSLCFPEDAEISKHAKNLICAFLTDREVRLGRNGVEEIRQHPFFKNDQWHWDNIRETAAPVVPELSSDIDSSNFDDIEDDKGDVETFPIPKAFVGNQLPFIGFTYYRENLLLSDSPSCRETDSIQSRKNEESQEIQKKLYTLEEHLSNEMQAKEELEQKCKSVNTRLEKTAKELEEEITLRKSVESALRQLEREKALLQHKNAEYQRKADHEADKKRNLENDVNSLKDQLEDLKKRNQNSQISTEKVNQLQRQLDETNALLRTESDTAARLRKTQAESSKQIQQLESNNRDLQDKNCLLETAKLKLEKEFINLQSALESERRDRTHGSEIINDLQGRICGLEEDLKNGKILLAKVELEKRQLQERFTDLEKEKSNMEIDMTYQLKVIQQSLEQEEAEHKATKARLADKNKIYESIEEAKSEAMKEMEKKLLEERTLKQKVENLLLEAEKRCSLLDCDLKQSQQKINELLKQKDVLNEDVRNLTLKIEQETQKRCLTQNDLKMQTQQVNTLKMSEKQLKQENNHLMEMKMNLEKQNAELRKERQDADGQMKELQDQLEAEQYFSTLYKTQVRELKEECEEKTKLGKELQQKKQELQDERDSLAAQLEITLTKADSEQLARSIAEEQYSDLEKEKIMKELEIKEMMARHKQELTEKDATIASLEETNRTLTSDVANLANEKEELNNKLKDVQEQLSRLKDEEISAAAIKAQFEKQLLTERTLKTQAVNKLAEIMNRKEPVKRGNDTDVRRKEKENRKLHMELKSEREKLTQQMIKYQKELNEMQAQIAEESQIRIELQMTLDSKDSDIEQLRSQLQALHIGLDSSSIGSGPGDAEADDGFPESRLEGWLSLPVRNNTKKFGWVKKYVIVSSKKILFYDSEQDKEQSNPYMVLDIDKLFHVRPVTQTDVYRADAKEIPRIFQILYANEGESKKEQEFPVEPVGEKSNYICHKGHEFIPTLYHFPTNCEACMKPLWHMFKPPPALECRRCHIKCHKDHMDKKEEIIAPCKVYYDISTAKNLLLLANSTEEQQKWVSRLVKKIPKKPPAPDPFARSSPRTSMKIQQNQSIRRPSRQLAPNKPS

| SMILES | IC50 |
| --- | --- |
| NC(=O)c1cccnc1O[C@H]1CC2(C[C@H](NC(=O)c3cnn4cc(OCC(F)F)ccc34)C2)C1 (stereo partly drawn) [Example 313, N-((aR)-6-((3-carbamoylpyridin-2-yl)oxy)spiro[3.3]heptan-2-yl)-6-(2,2-difluoroethoxy)pyrazolo[1,5-a]pyridine-3-carboxamide] | 5 to 50 nM |
| NC(=O)c1cccnc1O[C@H]1CC2(C[C@H](NC(=O)c3cnn4cc(OCC(O)C(F)(F)F)ccc34)C2)C1 (stereo partly drawn) [Example 314, N-((aR)-6-((3-carbamoylpyridin-2-yl)oxy)spiro[3.3]heptan-2-yl)-6-(3,3,3-trifluoro-2-hydroxypropoxy)pyrazolo[1,5-a]pyridine-3-carboxamide] | < 5 nM |
| NC(=O)c1cccnc1O[C@H]1CC2(C[C@H](NC(=O)c3cnn4cc(OCC(O)(C(F)(F)F)C(F)(F)F)ccc34)C2)C1 (stereo partly drawn) [Example 315, N-((aR)-6-((3-carbamoylpyridin-2-yl)oxy)spiro[3.3]heptan-2-yl)-6-(3,3,3-trifluoro-2-hydroxy-2-(trifluoromethyl)propoxy)pyrazolo[1,5-a]pyridine-3-carboxamide] | 5 to 50 nM |
| NC(=O)c1cccnc1O[C@H]1CC2(C[C@H](NC(=O)c3cnn4cc(N5CCC(F)(F)CC5)ccc34)C2)C1 (stereo partly drawn) [Example 316, N-((aR)-6-((3-carbamoylpyridin-2-yl)oxy)spiro[3.3]heptan-2-yl)-6-(4,4-difluoropiperidin-1-yl)pyrazolo[1,5-a]pyridine-3-carboxamide] | < 5 nM |
| NC(=O)c1cccnc1O[C@H]1CC2(C[C@H](NC(=O)c3cnn4cc(N5CCOCC5)ccc34)C2)C1 (stereo partly drawn) [Example 317, N-((aR)-6-((3-carbamoylpyridin-2-yl)oxy)spiro[3.3]heptan-2-yl)-6-morpholinopyrazolo[1,5-a]pyridine-3-carboxamide] | 5 to 50 nM |
| NC(=O)c1cccnc1O[C@H]1CC2(C[C@H](NC(=O)c3cnn4cc(N5CC[C@@H](F)C5)ccc34)C2)C1 (stereo partly drawn) [Example 318, N-((aR)-6-((3-carbamoylpyridin-2-yl)oxy)spiro[3.3]heptan-2-yl)-6-((R)-3-fluoropyrrolidin-1-yl)pyrazolo[1,5-a]pyridine-3-carboxamide] | < 5 nM |
| CN1CCN(c2ccc3c(C(=O)N[C@H]4CC5(C4)C[C@H](Oc4ncccc4C(N)=O)C5)cnn3c2)CC1 (stereo partly drawn) [Example 319, N-((aR)-6-((3-carbamoylpyridin-2-yl)oxy)spiro[3.3]heptan-2-yl)-6-(4-methylpiperazin-1-yl)pyrazolo[1,5-a]pyridine-3-carboxamide] | 5 to 50 nM |
| CC(C)c1c(OCC(C)(C)O)ccc2c(C(=O)N[C@H]3CC4(C3)C[C@H](Oc3ncccc3C(N)=O)C4)cnn12 (stereo partly drawn) [Example 320, N-((aR)-6-((3-carbamoylpyridin-2-yl)oxy)spiro[3.3]heptan-2-yl)-6-(2-hydroxy-2-methylpropoxy)-7-isopropylpyrazolo[1,5-a]pyridine-3-carboxamide] | 5 to 50 nM |
| Cc1c(OCC(C)(C)O)ccc2c(C(=O)N[C@H]3CC4(C3)C[C@H](Oc3ncccc3C(N)=O)C4)cnn12 (stereo partly drawn) [Example 321, N-((aR)-6-((3-carbamoylpyridin-2-yl)oxy)spiro[3.3]heptan-2-yl)-6-(2-hydroxy-2-methylpropoxy)-7-methylpyrazolo[1,5-a]pyridine-3-carboxamide] | 5 to 50 nM |
| NC(=O)c1cccnc1O[C@H]1CC2(C[C@H](NC(=O)c3cnc4cc(N5CC[C@H](F)C5)ccn34)C2)C1 (stereo partly drawn) [Example 322, N-((aR)-6-((3-carbamoylpyridin-2-yl)oxy)spiro[3.3]heptan-2-yl)-7-((S)-3-fluoropyrrolidin-1-yl)imidazo[1,2-a]pyridine-3-carboxamide] | < 5 nM |
| NC(=O)c1cccnc1O[C@H]1CC2(C[C@H](NC(=O)c3cnc4cc(N5CCC(F)(F)C5)ccn34)C2)C1 (stereo partly drawn) [Example 323, N-((aR)-6-((3-carbamoylpyridin-2-yl)oxy)spiro[3.3]heptan-2-yl)-7-(3,3-difluoropyrrolidin-1-yl)imidazo[1,2-a]pyridine-3-carboxamide] | < 5 nM |

Next, values leading:

| IC50 | SMILES |
| --- | --- |
| < 5 nM | NC(=O)c1cccnc1O[C@H]1CC2(C[C@H](NC(=O)c3cnc4cc(N5CCC(F)(F)CC5)ccn34)C2)C1 (stereo partly drawn) [Example 324, N-((aR)-6-((3-carbamoylpyridin-2-yl)oxy)spiro[3.3]heptan-2-yl)-7-(4,4-difluoropiperidin-1-yl)imidazo[1,2-a]pyridine-3-carboxamide] |
| 5 to 50 nM | NC(=O)c1cccnc1O[C@H]1CC2(C[C@H](NC(=O)c3cnc4cc(OCCN5CCCC5)ccn34)C2)C1 (stereo partly drawn) [Example 325, N-((aR)-6-((3-carbamoylpyridin-2-yl)oxy)spiro[3.3]heptan-2-yl)-7-(2-(pyrrolidin-1-yl)ethoxy)imidazo[1,2-a]pyridine-3-carboxamide] |
| 5 to 50 nM | NC(=O)c1cccnc1O[C@H]1CC2(C[C@H](NC(=O)c3cnc4cc(N5CC[C@@H](O)C5)ccn34)C2)C1 (stereo partly drawn) [Example 326, N-((aR)-6-((3-carbamoylpyridin-2-yl)oxy)spiro[3.3]heptan-2-yl)-7-((R)-3-hydroxypyrrolidin-1-yl)imidazo[1,2-a]pyridine-3-carboxamide] |
| 50 to 250 nM | NC(=O)c1cccnc1O[C@H]1CC2(C[C@H](NC(=O)c3cnc4ccc(F)cn34)C2)C1 (stereo partly drawn) [Example 327, N-((aR)-6-((3-carbamoylpyridin-2-yl)oxy)spiro[3.3]heptan-2-yl)-6-fluoroimidazo[1,2-a]pyridine-3-carboxamide] |
| 50 to 250 nM | CC(O)c1ccn2c(C(=O)N[C@H]3CC4(C3)C[C@H](Oc3ncccc3C(N)=O)C4)cnc2c1 (stereo partly drawn) [Example 328, N-((aR)-6-((3-carbamoylpyridin-2-yl)oxy)spiro[3.3]heptan-2-yl)-7-(1-hydroxyethyl)imidazo[1,2-a]pyridine-3-carboxamide] |
| < 5 nM | NC(=O)c1cccnc1O[C@H]1CC2(C[C@H](NC(=O)c3cnc4cc(N5CC[C@@H](F)C5)ccn34)C2)C1 (stereo partly drawn) [Example 329, N-((aR)-6-((3-carbamoylpyridin-2-yl)oxy)spiro[3.3]heptan-2-yl)-7-((R)-3-fluoropyrrolidin-1-yl)imidazo[1,2-a]pyridine-3-carboxamide] |
| 5 to 50 nM | C[C@@H](O)COc1ccc2c(C(=O)N[C@H]3CC4(C3)C[C@H](Oc3ncccc3C(N)=O)C4)cnn2c1 (stereo partly drawn) [Example 330, N-((aR)-6-((3-carbamoylpyridin-2-yl)oxy)spiro[3.3]heptan-2-yl)-6-((R)-2-hydroxypropoxy)pyrazolo[1,5-a]pyridine-3-carboxamide] |
| 5 to 50 nM | NC(=O)c1cccnc1O[C@H]1CC2(C[C@H](NC(=O)c3cnc4cc(OCC(F)F)ccn34)C2)C1 (stereo partly drawn) [Example 331, N-((aR)-6-((3-carbamoylpyridin-2-yl)oxy)spiro[3.3]heptan-2-yl)-7-(2,2-difluoroethoxy)imidazo[1,2-a]pyridine-3-carboxamide] |
| 5 to 50 nM | NC(=O)c1cccnc1O[C@H]1CC2(C[C@H](NC(=O)c3cnc4cc(OC(CF)CF)ccn34)C2)C1 (stereo partly drawn) [Example 332, N-((aR)-6-((3-carbamoylpyridin-2-yl)oxy)spiro[3.3]heptan-2-yl)-7-((1,3-difluoropropan-2-yl)oxy)imidazo[1,2-a]pyridine-3-carboxamide] |
| 5 to 50 nM | C[C@H](O)COc1ccc2c(C(=O)N[C@H]3CC4(C3)C[C@H](Oc3ncccc3C(N)=O)C4)cnn2c1 (stereo partly drawn) [Example 333, N-((aR)-6-((3-carbamoylpyridin-2-yl)oxy)spiro[3.3]heptan-2-yl)-6-((S)-2-hydroxypropoxy)pyrazolo[1,5-a]pyridine-3-carboxamide] |
